Reference: ChEMBL document CHEMBL5715949, “Discovery of a selective irreversible BMX inhibitor for prostate cancer” (ACS Chem Biol, 2013)
The source made the active and inactive calls. The calls are words filed in the database; no cut-off is given here.

Tests used:
[1] = Inhibition of PI3K/AKT/mTOR signalling pathway in human RV-1 cells assessed as decrease in S6K phosphorylation at T389 residue at 2.5 uM incubated for 5 days by immunoblot analysis; format: cell-based; settings: time 5.0 day
[2] = test system: Tyrosine-protein kinase ABL1 (Homo sapiens), P00519 [F317I]; assay: Inhibition of ABL1 F317I mutant (unknown origin) assessed as remaining activity at 1 uM by Kinome scan method relative to control
[3] = target: Cyclin-dependent kinase 7 (Homo sapiens) (UniProt P50613); assay: Inhibition of CDK7 (unknown origin) assessed as remaining activity at 1 uM by Kinome scan method relative to control
Chain of Cyclin-dependent kinase 7 (Homo sapiens) (P50613 whole entry): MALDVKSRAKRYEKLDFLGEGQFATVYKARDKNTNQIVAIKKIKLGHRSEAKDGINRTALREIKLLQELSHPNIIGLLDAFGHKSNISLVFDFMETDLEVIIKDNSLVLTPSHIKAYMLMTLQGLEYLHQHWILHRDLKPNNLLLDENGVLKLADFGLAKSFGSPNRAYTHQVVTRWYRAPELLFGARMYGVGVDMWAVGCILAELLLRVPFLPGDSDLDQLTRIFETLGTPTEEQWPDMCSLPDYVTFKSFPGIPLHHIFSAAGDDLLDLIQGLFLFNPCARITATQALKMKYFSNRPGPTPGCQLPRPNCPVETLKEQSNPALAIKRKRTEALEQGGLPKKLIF

[4] = target: Mitogen-activated protein kinase kinase kinase 15 (Homo sapiens) (UniProt Q6ZN16); assay: Inhibition of MAP3K15 (unknown origin) assessed as remaining activity at 1 uM by Kinome scan method relative to control
[5] = target: SRSF protein kinase 1 (Homo sapiens) (UniProt Q96SB4); assay: Inhibition of SRPK1 (unknown origin) assessed as remaining activity at 1 uM by Kinome scan method relative to control
[6] = test system: Phosphatidylinositol 4,5-bisphosphate 3-kinase catalytic subunit alpha isoform (Homo sapiens), P42336 [H1047Y]; assay: Inhibition of PIK3CA H1047Y mutant (unknown origin) assessed as remaining activity at 1 uM by Kinome scan method relative to control
RV-1 [7] = assay: Antiproliferative activity against human RV-1 cells assessed as reduction in cell viability at 500 to 2500 nM incubated for 5 days in presence of Torin1 by CellTiter-Glo assay; format: functional, cell-based; settings: dose 500-2500 nM, time 5.0 day
[8] = target: Mitogen-activated protein kinase kinase kinase 7 (Homo sapiens) (UniProt O43318); assay: Inhibition of TAK1 (unknown origin) assessed as remaining activity at 1 uM by Kinome scan method relative to control
Chain of Mitogen-activated protein kinase kinase kinase 7 (Homo sapiens) (O43318 whole entry): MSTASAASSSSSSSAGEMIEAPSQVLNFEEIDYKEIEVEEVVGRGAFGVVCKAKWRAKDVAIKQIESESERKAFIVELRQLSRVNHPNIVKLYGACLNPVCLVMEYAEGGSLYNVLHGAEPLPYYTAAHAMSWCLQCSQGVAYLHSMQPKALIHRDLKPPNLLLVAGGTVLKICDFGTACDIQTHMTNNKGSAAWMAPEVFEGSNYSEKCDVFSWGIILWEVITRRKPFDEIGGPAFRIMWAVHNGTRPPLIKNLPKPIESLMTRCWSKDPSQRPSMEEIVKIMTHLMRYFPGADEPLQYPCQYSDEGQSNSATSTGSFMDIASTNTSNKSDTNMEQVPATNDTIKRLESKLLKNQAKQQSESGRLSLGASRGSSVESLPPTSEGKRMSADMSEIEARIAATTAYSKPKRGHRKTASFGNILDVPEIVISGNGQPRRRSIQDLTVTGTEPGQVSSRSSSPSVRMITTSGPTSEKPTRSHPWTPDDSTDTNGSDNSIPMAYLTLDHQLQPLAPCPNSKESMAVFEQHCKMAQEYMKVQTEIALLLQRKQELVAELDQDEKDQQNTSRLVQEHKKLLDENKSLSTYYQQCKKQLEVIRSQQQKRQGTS

[9] = target: Serine/threonine-protein kinase MARK2 (Homo sapiens) (UniProt Q7KZI7); assay: Inhibition of MARK2 (unknown origin) assessed as remaining activity at 1 uM by Kinome scan method relative to control
[10] = Inhibition of PI3K/AKT/mTOR signalling pathway in human RV-1 cells assessed as decrease in AKT phosphorylation at T308 residue at 2.5 uM incubated for 5 days by immunoblot analysis; format: cell-based; settings: time 5.0 day
[11] = target: Serine/threonine-protein kinase ULK1 (Homo sapiens) (UniProt O75385); assay: Inhibition of ULK1 (unknown origin) assessed as remaining activity at 1 uM by Kinome scan method relative to control
Chain of Serine/threonine-protein kinase ULK1 (Homo sapiens) (O75385 whole entry): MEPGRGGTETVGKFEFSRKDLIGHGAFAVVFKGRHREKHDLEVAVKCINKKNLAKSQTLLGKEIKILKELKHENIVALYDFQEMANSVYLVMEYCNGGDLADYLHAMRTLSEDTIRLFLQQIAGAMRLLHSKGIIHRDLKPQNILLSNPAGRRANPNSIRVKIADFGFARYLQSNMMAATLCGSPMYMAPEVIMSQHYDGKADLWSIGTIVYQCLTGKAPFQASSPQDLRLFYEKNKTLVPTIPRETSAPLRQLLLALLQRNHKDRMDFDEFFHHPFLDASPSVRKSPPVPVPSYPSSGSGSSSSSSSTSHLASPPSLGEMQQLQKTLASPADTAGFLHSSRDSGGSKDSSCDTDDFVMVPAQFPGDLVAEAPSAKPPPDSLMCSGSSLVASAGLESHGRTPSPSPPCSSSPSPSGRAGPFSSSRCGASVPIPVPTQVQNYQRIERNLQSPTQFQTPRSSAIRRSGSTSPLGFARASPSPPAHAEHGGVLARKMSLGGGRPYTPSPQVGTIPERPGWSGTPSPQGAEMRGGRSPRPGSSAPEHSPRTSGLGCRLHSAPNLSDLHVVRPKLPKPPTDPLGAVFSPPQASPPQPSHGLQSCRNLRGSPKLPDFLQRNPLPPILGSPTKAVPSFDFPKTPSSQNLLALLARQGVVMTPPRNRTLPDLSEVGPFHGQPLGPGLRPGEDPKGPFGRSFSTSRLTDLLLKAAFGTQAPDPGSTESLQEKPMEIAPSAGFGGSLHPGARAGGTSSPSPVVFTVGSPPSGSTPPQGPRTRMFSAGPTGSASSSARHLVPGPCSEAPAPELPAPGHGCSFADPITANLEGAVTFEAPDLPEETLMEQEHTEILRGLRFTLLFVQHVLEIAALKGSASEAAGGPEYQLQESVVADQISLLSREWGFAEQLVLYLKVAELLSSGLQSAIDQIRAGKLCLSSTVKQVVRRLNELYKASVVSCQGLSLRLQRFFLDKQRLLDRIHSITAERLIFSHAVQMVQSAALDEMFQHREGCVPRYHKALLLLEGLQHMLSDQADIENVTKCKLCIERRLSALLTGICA

[12] = Inhibition of PI3K/AKT/mTOR signalling pathway in human RV-1 cells assessed as decrease in PRAS40 phosphorylation at T246 residue at 2.5 uM incubated for 4 hrs by immunoblot analysis; format: cell-based
[13] = target: 5'-AMP-activated protein kinase catalytic subunit alpha-2 (Homo sapiens) (UniProt P54646); assay: Inhibition of AMPK-alpha2 (unknown origin) assessed as remaining activity at 1 uM by Kinome scan method relative to control
[14] = target: Activin receptor type-1B (Homo sapiens) (UniProt P36896); assay: Inhibition of ACVR1B (unknown origin) assessed as remaining activity at 1 uM by Kinome scan method relative to control
[15] = target: Proto-oncogene tyrosine-protein kinase receptor Ret (Homo sapiens) (UniProt P07949); assay: Inhibition of RET (unknown origin) assessed as remaining activity at 1 uM by Kinome scan method relative to control
Chain of Proto-oncogene tyrosine-protein kinase receptor Ret (Homo sapiens) (P07949 whole entry): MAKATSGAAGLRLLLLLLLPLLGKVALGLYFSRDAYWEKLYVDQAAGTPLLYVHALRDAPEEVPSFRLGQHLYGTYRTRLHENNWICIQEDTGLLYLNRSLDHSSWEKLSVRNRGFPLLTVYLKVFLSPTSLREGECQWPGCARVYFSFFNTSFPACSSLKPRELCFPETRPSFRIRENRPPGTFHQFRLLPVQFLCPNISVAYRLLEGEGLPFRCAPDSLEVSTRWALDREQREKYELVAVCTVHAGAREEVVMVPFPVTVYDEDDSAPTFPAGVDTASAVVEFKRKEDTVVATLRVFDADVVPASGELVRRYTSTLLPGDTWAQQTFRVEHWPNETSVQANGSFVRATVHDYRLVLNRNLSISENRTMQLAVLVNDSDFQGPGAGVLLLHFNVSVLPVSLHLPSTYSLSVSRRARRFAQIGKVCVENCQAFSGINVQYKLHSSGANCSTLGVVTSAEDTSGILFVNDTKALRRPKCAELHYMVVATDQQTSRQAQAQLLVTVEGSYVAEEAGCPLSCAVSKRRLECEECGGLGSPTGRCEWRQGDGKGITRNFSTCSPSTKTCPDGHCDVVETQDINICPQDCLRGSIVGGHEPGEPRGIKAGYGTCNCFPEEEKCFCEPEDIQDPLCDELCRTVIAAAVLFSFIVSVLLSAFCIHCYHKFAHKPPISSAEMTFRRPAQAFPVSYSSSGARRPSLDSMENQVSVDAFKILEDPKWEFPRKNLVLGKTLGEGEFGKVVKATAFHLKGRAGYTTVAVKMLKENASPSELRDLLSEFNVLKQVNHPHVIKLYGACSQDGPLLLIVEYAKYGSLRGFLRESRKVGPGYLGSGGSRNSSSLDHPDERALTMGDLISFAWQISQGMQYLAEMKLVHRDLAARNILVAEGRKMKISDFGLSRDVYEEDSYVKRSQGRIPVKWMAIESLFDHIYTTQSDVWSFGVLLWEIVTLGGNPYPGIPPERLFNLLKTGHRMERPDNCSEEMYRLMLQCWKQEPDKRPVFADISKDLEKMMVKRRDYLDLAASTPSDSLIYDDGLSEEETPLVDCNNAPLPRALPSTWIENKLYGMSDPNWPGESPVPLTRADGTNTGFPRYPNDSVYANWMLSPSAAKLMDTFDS

[16] = target: Tyrosine-protein kinase CSK (Homo sapiens) (UniProt P41240); assay: Inhibition of CSK (unknown origin) assessed as remaining activity at 1 uM by Kinome scan method relative to control
[17] = target: Ephrin type-A receptor 6 (Homo sapiens) (UniProt Q9UF33); assay: Inhibition of EPHA6 (unknown origin) assessed as remaining activity at 1 uM by Kinome scan method relative to control
Chain of Ephrin type-A receptor 6 (Homo sapiens) (Q9UF33 whole entry): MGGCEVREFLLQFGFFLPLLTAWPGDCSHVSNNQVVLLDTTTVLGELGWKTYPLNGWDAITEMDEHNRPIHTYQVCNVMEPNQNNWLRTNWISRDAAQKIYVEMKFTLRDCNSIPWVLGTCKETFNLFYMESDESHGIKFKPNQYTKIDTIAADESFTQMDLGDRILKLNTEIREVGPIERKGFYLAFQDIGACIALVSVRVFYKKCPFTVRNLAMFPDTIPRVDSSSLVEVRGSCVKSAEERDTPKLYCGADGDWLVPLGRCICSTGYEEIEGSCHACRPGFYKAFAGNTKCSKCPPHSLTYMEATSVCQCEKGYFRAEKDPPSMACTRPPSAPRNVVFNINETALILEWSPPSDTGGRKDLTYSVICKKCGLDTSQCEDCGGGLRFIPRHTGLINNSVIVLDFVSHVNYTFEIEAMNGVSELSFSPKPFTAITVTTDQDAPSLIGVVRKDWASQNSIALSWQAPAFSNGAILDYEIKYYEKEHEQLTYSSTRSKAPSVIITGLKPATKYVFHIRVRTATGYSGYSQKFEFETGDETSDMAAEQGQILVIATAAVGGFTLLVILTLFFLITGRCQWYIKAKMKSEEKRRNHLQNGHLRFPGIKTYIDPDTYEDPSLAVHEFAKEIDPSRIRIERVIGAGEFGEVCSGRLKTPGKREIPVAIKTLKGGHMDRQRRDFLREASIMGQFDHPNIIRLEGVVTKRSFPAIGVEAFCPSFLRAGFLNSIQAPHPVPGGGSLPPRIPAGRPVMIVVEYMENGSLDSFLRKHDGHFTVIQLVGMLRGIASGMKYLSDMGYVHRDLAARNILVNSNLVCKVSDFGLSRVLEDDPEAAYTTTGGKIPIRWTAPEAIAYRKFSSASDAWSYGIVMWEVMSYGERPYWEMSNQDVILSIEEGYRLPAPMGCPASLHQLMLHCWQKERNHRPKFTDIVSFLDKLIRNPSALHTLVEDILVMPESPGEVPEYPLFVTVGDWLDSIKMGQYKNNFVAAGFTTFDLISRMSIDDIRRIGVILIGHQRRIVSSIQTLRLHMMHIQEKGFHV

RV-1 [18] = assay: Induction of apoptosis in human RV-1 cells at 2.5 uM incubated for 5 days in presence of […] by propidium iodide staining based flow cytometric analysis; format: functional, cell-based; settings: time 5.0 day
BaF3 [19] = assay: Antiproliferative activity against mouse BaF3 cells expressing TEL-fused BMX assessed growth inhibition incubated for 2 to 5 days by CellTiter-Glo assay; format: functional, cell-based
[20] = target: Peripheral plasma membrane protein CASK (Homo sapiens) (UniProt O14936); assay: Inhibition of CASK (unknown origin) assessed as remaining activity at 1 uM by Kinome scan method relative to control
[21] = target: Rhodopsin kinase GRK7 (Homo sapiens) (UniProt Q8WTQ7); assay: Inhibition of GRK7 (unknown origin) assessed as remaining activity at 1 uM by Kinome scan method relative to control
[22] = target: Serine/threonine-protein kinase PknB (Mycobacterium tuberculosis) (UniProt P9WI81); assay: Inhibition of Mycobacterium tuberculosis PknB assessed as remaining activity at 1 uM by Kinome scan method relative to control
[23] = Induction of cell cycle arrest in human RV-1 cells assessed as accumulation of cells at G2/M phase at 2.5 uM incubated for 5 days in presence of MK2206 by propidium iodide staining based flow cytometric analysis (reference value: 11.4 %); format: functional; settings: time 5 day
[24] = target: Serine/threonine-protein kinase RIO3 (Homo sapiens) (UniProt O14730); assay: Inhibition of RIOK3 (unknown origin) assessed as remaining activity at 1 uM by Kinome scan method relative to control
Chain of Serine/threonine-protein kinase RIO3 (Homo sapiens) (O14730 whole entry): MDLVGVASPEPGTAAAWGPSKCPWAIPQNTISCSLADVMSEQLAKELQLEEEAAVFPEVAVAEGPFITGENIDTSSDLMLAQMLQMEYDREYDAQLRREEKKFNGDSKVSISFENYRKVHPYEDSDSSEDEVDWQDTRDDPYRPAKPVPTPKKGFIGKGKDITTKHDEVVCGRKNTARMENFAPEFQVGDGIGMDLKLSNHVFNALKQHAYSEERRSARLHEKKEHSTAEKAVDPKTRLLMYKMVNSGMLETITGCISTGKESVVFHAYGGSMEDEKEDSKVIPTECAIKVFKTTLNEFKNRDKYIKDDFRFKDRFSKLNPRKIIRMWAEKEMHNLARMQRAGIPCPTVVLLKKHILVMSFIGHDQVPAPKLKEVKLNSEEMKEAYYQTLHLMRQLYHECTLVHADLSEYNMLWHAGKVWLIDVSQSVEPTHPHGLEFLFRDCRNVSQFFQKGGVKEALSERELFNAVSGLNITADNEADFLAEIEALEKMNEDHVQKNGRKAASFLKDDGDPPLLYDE

[25] = target: Mitogen-activated protein kinase 4 (Homo sapiens) (UniProt P31152); assay: Inhibition of ERK4 (unknown origin) assessed as remaining activity at 1 uM by Kinome scan method relative to control
[26] = target: Myosin light chain kinase family member 4 (Homo sapiens) (UniProt Q86YV6); assay: Inhibition of MYLK4 (unknown origin) assessed as remaining activity at 1 uM by Kinome scan method relative to control
Chain of Myosin light chain kinase family member 4 (Homo sapiens) (Q86YV6 whole entry): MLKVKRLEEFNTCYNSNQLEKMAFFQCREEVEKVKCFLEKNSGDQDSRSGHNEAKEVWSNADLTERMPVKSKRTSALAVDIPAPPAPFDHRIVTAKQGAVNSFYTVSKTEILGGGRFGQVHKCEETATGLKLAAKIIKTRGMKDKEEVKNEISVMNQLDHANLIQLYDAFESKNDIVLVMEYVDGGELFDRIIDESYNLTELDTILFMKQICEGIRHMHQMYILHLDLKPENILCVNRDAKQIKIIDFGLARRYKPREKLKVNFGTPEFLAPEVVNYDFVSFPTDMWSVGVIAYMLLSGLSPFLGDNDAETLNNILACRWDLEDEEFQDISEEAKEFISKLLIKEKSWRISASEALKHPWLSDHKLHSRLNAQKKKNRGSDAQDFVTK

[27] = target: Tyrosine-protein kinase HCK (Homo sapiens) (UniProt P08631); assay: Inhibition of HCK (unknown origin) assessed as remaining activity at 1 uM by Kinome scan method relative to control
[28] = Antiproliferative activity against human RV-1 cells assessed growth inhibition incubated for 2 to 5 days by CellTiter-Glo assay; format: functional; settings: time 2-5 day
[29] = target: Serine/threonine-protein kinase PAK 2 (Homo sapiens) (UniProt Q13177); assay: Inhibition of PAK2 (unknown origin) assessed as remaining activity at 1 uM by Kinome scan method relative to control
BaF3 [30] = assay: Antiproliferative activity against mouse BaF3 cells expressing TEL-fused JAK2 assessed growth inhibition incubated for 2 to 5 days by CellTiter-Glo assay; format: functional; settings: time 2-5 day
RV-1 [31] = assay: Antiproliferative activity against human RV-1 cells assessed as reduction in cell viability at 500 to 2500 nM incubated for 5 days in presence of WYE125132 by CellTiter-Glo assay; format: functional, cell-based; settings: dose 500-2500 nM, time 5.0 day
[32] = test system: Proto-oncogene tyrosine-protein kinase receptor Ret (Homo sapiens), P07949 [V804M]; assay: Inhibition of RET V804M (unknown origin) assessed as remaining activity at 1 uM by Kinome scan method relative to control
LNCaP C4-2 = assay: Antiproliferative activity against human C4-2 cells assessed growth inhibition incubated for 2 to 5 days by CellTiter-Glo assay; format: functional; settings: time 2-5 day

## C=CC(=O)Nc1cc(-n2c(=O)ccc3cnc4ccc(-c5ccc(NS(C)(=O)=O)cc5)cc4c32)ccc1C
[1]
  inhibition: Active
[2]
  Activity: 81%
[3]
  Activity: 79%
[4]
  Activity: 70%
[5]
  Activity: 78%
[6]
  Activity: 88%
RV-1 [7]
  Activity: Active
[8]
  Activity: 83%
[9]
  Activity: 94%
[10]
  inhibition: Active
[11]
  Activity: 84%
[12]
  inhibition: inactive
[13]
  Activity: 92%
[14]
  Activity: 84%
[15]
  Activity: 88%
[16]
  Activity: 99%
[17]
  Activity: 96%
RV-1 [18]
  Activity: Active
BaF3 [19]
  IC50: 569 nM
BaF3 [19]; time 2-5 day
  GI50: 25 nM
[20]
  Activity: 61%
[21]
  Activity: 75%
[22]
  Activity: 41%
[23]
  Activity: 11.5%
[24]
  Activity: 55%
[25]
  Activity: 91%
[26]
  Activity: 96%
[27]
  Activity: 97%
[28]
  GI50: 2530 nM
[29]
  Activity: 78%
BaF3 [30]
  GI50: 5830 nM
RV-1 [31]
  Activity: Active
[32]
  Activity: 85%
LNCaP C4-2
  GI50: > 10000 nM
